Test [1] has as its system RS4;11 leukaemia tumour line. Put plainly: In vitro cytotoxicity (Microculture Tetrazolium Assay, 48 hours). To be noted: read-out: IC50 (nM) MTT RS4. Type of test: cell-based. The method, then:
The cytotoxicity studies were carried out on the RS4;11 leukaemia tumour line.
The cells are distributed onto microplates and exposed to the test compounds for 48 hours.

The target in the next test is Bcl-2 protein (Homo sapiens (Human), UniProt P10415). Kind of test: Inhibition of Bcl-2 by the fluorescence polarisation technique. Type of test: binding. To be noted: read-out: IC50 (nM) Bcl-2 FP. The method, then:
The fluorescence polarisation tests were carried out on microplates (384 wells). […] After incubation for 2 hours, the fluorescence polarisation is measured.
On the technique in general: Fluorescence polarisation rises when a labelled molecule tumbles more slowly, as on binding a larger partner.

Where [2] appears, read: Homo sapiens, RS4;11 cells, 48 hours exposure, MTT, concentration that inhibits cell viability by 50%.
Where [3] appears, read: fluorescence polarisation test, concentration that inhibits fluorescence polarisation by 50%.
The mark [4] stands for this setting: RS4;11 cells, 48 hours exposure, MTT, concentration that inhibits cell viability by 50%.

Where a name gives a salt, the structure may show the parent alone. Read-outs that look alike come from different tables or passages of the source.

Chain of Bcl-2 protein (P10415 whole entry): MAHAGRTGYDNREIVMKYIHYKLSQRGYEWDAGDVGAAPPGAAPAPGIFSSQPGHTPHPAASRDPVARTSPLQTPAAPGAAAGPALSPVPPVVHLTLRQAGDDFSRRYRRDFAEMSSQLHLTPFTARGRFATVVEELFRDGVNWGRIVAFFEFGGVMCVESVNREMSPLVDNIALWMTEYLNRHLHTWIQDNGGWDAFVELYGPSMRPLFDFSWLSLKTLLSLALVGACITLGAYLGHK

As to `O=C(c1cc(-c2cc3c(cc2C(=O)N2Cc4ccccc4C[C@H]2CN2CCOCC2)OCO3)n2c1CCCC2)N(c1ccccc1)c1ccc(O)cc1` [Example 1, N-(4-Hydroxyphenyl)-3-{6-[((3S)-3-(4-morpholinylmethyl)-3,4-dihydro-2(1H)-isoquinolinyl)carbonyl]-1,3-benzdioxol-5-yl}-N-phenyl-5,6,7,8-tetrahydro-1-indolizine carboxamide hydrochloride], in test [1] (setting [2]), the IC50 was found to be 60.1 nM.

For `O=C(c1cc(-c2cc3c(cc2C(=O)N2Cc4ccccc4C[C@H]2CN2CCOCC2)OCO3)n2c1CCCC2)N(c1ccc(O)cc1)c1ccc(OC(F)(F)F)cc1` [Example 5, N-(4-Hydroxyphenyl)-3-{6-[((3S)-3-(4-morpholinylmethyl)-3,4-dihydro-2(1H)-isoquinolinyl)carbonyl]-1,3-benzodioxol-5-yl}-N-[4-(trifluoromethoxy)phenyl]-5,6,7,8-tetrahydro-1-indolizine carboxamide hydrochloride], the concentration for half-maximal inhibition (IC50) on Bcl-2 protein (setting [3]) turned out to be 51 nM; in test [1] (setting [2]), 98 nM.

Take `O=C(c1cc(-c2cc3c(cc2C(=O)N2Cc4ccccc4C[C@H]2CN2CCOCC2)OCO3)n2c1CCCC2)N(c1ccc(O)cc1)c1ccc(O)cc1` [Example 6, N,N-bis(4-Hydroxyphenyl)-3-{6-[((3S)-3-(4-morpholinylmethyl)-3,4-dihydro-2(1H)-isoquinolinyl)carbonyl]-1,3-benzodioxol-5-yl}-5,6,7,8-tetrahydro-1-indolizine carboxamide hydrochloride]: the IC50 is 15 nM at Bcl-2 protein (setting [3]) and 30 nM in test [1] (Homo sapiens, RS4-11, 48 h).

Take `Cn1ccc2cc(N(C(=O)c3cc(-c4cc5c(cc4C(=O)N4Cc6ccccc6C[C@H]4CN4CCOCC4)OCO5)n4c3CCCC4)c3ccc(O)cc3)ccc21` [Example 10, N-[4-(Hydroxy)phenyl]-N-(1-methyl-1H-indol-5-yl)-3-{6-[((3S)-3-(4-morpholinylmethyl)-3,4-dihydro-2(1H)-isoquinolinyl)carbonyl]-1,3-benzodioxol-5-yl}-5,6,7,8-tetrahydro-1-indolizine carboxamide hydrochloride]: the IC50 in test [1] (setting [2]) amounted to 11 nM.

With `CN1CCN(C[C@@H]2Cc3ccccc3CN2C(=O)c2cc3c(cc2-c2cc(C(=O)N(c4ccc(O)cc4)c4ccc5c(ccn5C)c4)c4n2CCCC4)OCO3)CC1` [Example 13, N-(4-Hydroxyphenyl)-N-(1-methyl-1H-indol-5-yl)-3-{6-[((3S)-3-[(4-methyl-1-piperazinyl)methyl]-3,4-dihydro-2(1H)-isoquinolinyl)carbonyl]-1,3-benzodioxol-5-yl}-5,6,7,8-tetrahydro-1-indolizine carboxamide bis(hydrochloride)], the IC50 on Bcl-2 protein (setting [3]) stood at 12 nM; in test [1] (setting [2]), 8.63 nM.

In the case of `Cn1ccc2cc(N(C(=O)c3cc(-c4cc5c(cc4C(=O)N4Cc6ccccc6C[C@H]4CN4CCCOCC4)OCO5)n4c3CCCC4)c3ccc(O)cc3)ccc21` [Example 14, N-(4-Hydroxyphenyl)-N-(1-methyl-1H-indol-5-yl)-3-{6-[((3S)-3-(1,4-oxazepan-4-ylmethyl)-3,4-dihydro-2(1H)-isoquinolinyl)carbonyl]-1,3-benzodioxol-5-yl}-5,6,7,8-tetrahydro-1-indolizine carboxamide hydrochloride], the values for the IC50 (on Bcl-2 protein (setting [3]); in test [1] (setting [2])) were 16 nM and 10.7 nM, respectively.

Turning to `C[C@@H]1COCCN1C[C@@H]1Cc2ccccc2CN1C(=O)c1cc2c(cc1-c1cc(C(=O)N(c3ccc(O)cc3)c3ccc4c(ccn4C)c3)c3n1CCCC3)OCO2` [Example 15, N-(4-Hydroxyphenyl)-N-(1-methyl-1H-indol-5-yl)-3-{6-[((3S)-3-{[(3R)-3-methylmorpholinyl]methyl}-3,4-dihydro-2(1H)-isoquinolinyl)carbonyl]-1,3-benzodioxol-5-yl}-5,6,7,8-tetrahydro-1-indolizine carboxamide hydrochloride], the IC50 turned out to be 17 nM at Bcl-2 protein and 20.4 nM in test [1] (setting [4]).

Consider `C[C@H]1COCCN1C[C@@H]1Cc2ccccc2CN1C(=O)c1cc2c(cc1-c1cc(C(=O)N(c3ccc(O)cc3)c3ccc4c(ccn4C)c3)c3n1CCCC3)OCO2` [Example 16, N-(4-Hydroxyphenyl)-N-(1-methyl-1H-indol-5-yl)-3-{6-[((3S)-3-{[(3S)-3-methylmorpholinyl]methyl}-3,4-dihydro-2(1H)-isoquinolinyl)carbonyl]-1,3-benzodioxol-5-yl}-5,6,7,8-tetrahydro-1-indolizine carboxamide hydrochloride], for which the IC50 at Bcl-2 protein turned out to be 18 nM; in test [1] (setting [4]), 23.4 nM.

For the compound `CCOc1ccc(C(=O)N2Cc3ccccc3C[C@H]2CN2CCOCC2)c(-c2cc(C(=O)N(c3ccc(O)cc3)c3ccc4c(ccn4C)c3)c3n2CCCC3)c1` [Example 36, 3-{5-Ethoxy-2-[((3S)-3-(4-morpholinylmethyl)-3,4-dihydro-2(1H)-isoquinolinyl)carbonyl]phenyl}-N-(4-hydroxyphenyl)-N-(1-methyl-H-indol-5-yl)-5,6,7,8-tetrahydro-1-indolizine carboxamide hydrochloride], the IC50 in test [1] (setting [4]) is 135 nM.

Regarding `Cl.[2H]C1([2H])Oc2cc(C(=O)N3Cc4ccccc4C[C@H]3CN3CCOCC3)c(-c3cc(C(=O)N(c4ccc(O)cc4)c4ccc5c(ccn5C)c4)c4n3CCCC4)cc2O1` [Example 37, N-(4-Hydroxyphenyl)-N-(1-methyl-1H-indol-5-yl)-3-{2,2-dideuterio-6-[((3S)-3-(4-morpholinylmethyl)-3,4-dihydro-2(1H)-isoquinolinyl)carbonyl]-1,3-benzodioxol-5-yl}-5,6,7,8-tetrahydro-1-indolizine carboxamide hydrochloride], in test [1] (setting [2]), the IC50 is 11.6 nM.

In the case of `Cl.[2H]C1([2H])Oc2cc(C(=O)N3Cc4ccccc4C[C@H]3CN3CCOCC3)c(-c3cc(C(=O)N(c4ccccc4)c4ccc(O)cc4)c4n3CCCC4)cc2O1` [Example 38, N-(4-Hydroxyphenyl)-3-{2,2-dideuterio-6-[((3S)-3-(4-morpholinylmethyl)-3,4-dihydro-2(1H)-isoquinolinyl)carbonyl]-1,3-benzodioxol-5-yl}-N-phenyl-5,6,7,8-tetrahydro-1-indolizine carboxamide hydrochloride], the IC50 in test [1] (setting [2]) amounted to 61.8 nM.

Regarding `Cn1ccc2cc(N(C(=O)c3cc(-c4cc5c(cc4C(=O)N4Cc6ccccc6C[C@H]4CN4CCOCC4)OCO5)n4c3CCCCC4)c3ccc(O)cc3)ccc21` [Example 84, hydrochloride], the concentration for half-maximal inhibition (IC50) in test [1] (setting [2]) amounted to 20.6 nM.

Regarding `O=C(c1cc(-c2cc(Cl)ccc2C(=O)N2Cc3ccccc3C[C@H]2CN2CCOCC2)n2c1CCCC2)N(c1ccc(O)cc1)c1cncnc1` [Example 141, 3-(5-Chloro-2-{[(3S)-3-(morpholin-4-ylmethyl)-3,4-dihydroisoquinolin-2(1H)-yl]carbonyl}phenyl)-N-(4-hydroxyphenyl)-N-(pyrimidin-5-yl)-5,6,7,8-tetrahydroindolizine-1-carboxamide hydrochloride], in test [1] (setting [2]), the IC50 came to 72.5 nM.

Turning to `O=C(c1cc(-c2cc(Cl)ccc2C(=O)N2Cc3ccccc3C[C@H]2CN2CCOCC2)n2c1CCCC2)N(c1ccc(O)cc1)c1cccnc1` [Example 142, 3-(5-Chloro-2-{[(3S)-3-(morpholin-4-ylmethyl)-3,4-dihydroisoquinolin-2(1H)-yl]carbonyl}phenyl)-N-(4-hydroxyphenyl)-N-(pyridin-3-yl)-5,6,7,8-tetrahydroindolizine-1-carboxamide bis(hydrochloride)], the IC50 in test [1] (setting [2]) was determined as 66.1 nM.

Take `COc1c(F)cc(N(C(=O)c2cc(-c3cc(Cl)ccc3C(=O)N3Cc4ccccc4C[C@H]3CN3CCOCC3)n3c2CCCC3)c2ccc(O)cc2)cc1F` [Example 143, 3-(5-Chloro-2-{[(3S)-3-(morpholin-4-ylmethyl)-3,4-dihydroisoquinolin-2(1H)-yl]carbonyl}phenyl)-N-(3,5-difluoro-4-methoxyphenyl)-N-(4-hydroxyphenyl)-5,6,7,8-tetrahydroindolizine-1-carboxamide hydrochloride]: the IC50 in test [1] (setting [2]) came out at 43.8 nM.

As for `O=C(c1cc(-c2cc(Cl)ccc2C(=O)N2Cc3ccccc3C[C@H]2CN2CCOCC2)n2c1CCCC2)N(c1ccncc1)c1ccc(O)cc1` [Example 144, 3-(5-Chloro-2-{[(3S)-3-(morpholin-4-ylmethyl)-3,4-dihydroisoquinolin-2(1H)-yl]carbonyl}phenyl)-N-(4-hydroxyphenyl)-N-(pyridin-4-yl)-5,6,7,8-tetrahydroindolizine-1-carboxamide bis(hydrochloride)], the IC50 in test [1] (setting [2]) was determined as 59.9 nM.

For the compound `COc1ccc(N(C(=O)c2cc(-c3cc(Cl)ccc3C(=O)N3Cc4ccccc4C[C@H]3CN3CCOCC3)n3c2CCCC3)c2ccc(O)cc2)cc1F` [Example 145, 3-(5-Chloro-2-{[(3S)-3-(morpholin-4-ylmethyl)-3,4-dihydroisoquinolin-2(1H)-yl]carbonyl}phenyl)-N-(3-fluoro-4-methoxyphenyl)-N-(4-hydroxyphenyl)-5,6,7,8-tetrahydroindolizine-1-carboxamide hydrochloride], the IC50 in test [1] (setting [2]) was 28.9 nM.

Take `COCCN(C)C[C@@H]1Cc2ccccc2CN1C(=O)c1cc2c(cc1-c1cc(C(=O)N(c3ccccc3)c3ccc(O)cc3)c3n1CCCC3)OCO2` [Example 146, N-(4-Hydroxyphenyl)-3-(6-{[(3S)-3-{[(2-methoxyethyl)(methyl)amino]-methyl}-3,4-dihydroisoquinolin-2(1H)-yl]carbonyl}-1,3-benzodioxol-5-yl)-N-phenyl-5,6,7,8-tetrahydroindolizine-1-carboxamide hydrochloride]: the IC50 in test [1] (setting [2]) came out at 153 nM.

As for `O=C(c1cc(-c2cc3c(cc2C(=O)N2Cc4ccccc4C[C@H]2CN2CCS(=O)(=O)CC2)OCO3)n2c1CCCC2)N(c1ccccc1)c1ccc(O)cc1` [Example 147, 3-(6-{[(3S)-3-[(1,1-Dioxidothiomorpholin-4-yl)methyl]-3,4-dihydroisoquinolin-2(1H)-yl]carbonyl}-1,3-benzodioxol-5-yl)-N-(4-hydroxyphenyl)-N-phenyl-5,6,7,8-tetrahydroindolizine-1-carboxamide hydrochloride], in test [1] (setting [2]), the IC50 turned out to be 74.2 nM.

One may read the IC50 as the point on the concentration scale where inhibition reaches its midpoint.

For the origin of these results see patent publication US9120791B2, “Indolizine compounds, a process for their preparation and pharmaceutical compositions containing them” (LES LABORATOIRES SERVIER, priority 2012, dated 2015).
